Measured values published in ChEMBL document CHEMBL3507680, “University of Dundee, Gates Library screen for HepG2 cell viability”.

Assay: Human HepG2 cell viability assay in 384 well format
Type: toxicity, cell-based
Parameters: dose 125 nL, time 70.5 hour; concentration not given beside the values
Details: HepG2 cells, read-out: Inhibition

Row | SMILES | cytotoxicity at 70.5 h [%]
1 | CS(=O)(=O)N1C[C@@H]2CC[C@H](C1)N(C(=O)CCn1cnc3ccccc31)C2 | 18.3
2 | Cc1cccc2[nH]c(C3CCN(C(=O)c4cccnn4)CC3)nc12 | 16.6
3 | Cc1ccc(CN2CCN(C3CCSCC3)CC2CCO)o1 (centres undefined) | -0.539
4 | Cc1cc(N2CCC(C(=O)O)(n3ccc(C(C)(C)C)n3)CC2)nc(N)n1 | 0.151
5 | CNc1ccnc(NCC(=O)Nc2cc(C)ccc2OC)n1 | -5.67
6 | COc1ccccc1OCCCc1cc(C#N)ccn1 | 6.71
7 | O=C(O)[C@]12CCCN(Cc3nccs3)[C@@H]1CCN(c1cnccn1)C2 | -5.49
8 | CSc1nccc(N2CCC(NCc3nc(C)cc(C)n3)CC2)n1 | 1.01
9 | Cc1nc(CCCN2CCOCC2)n(Cc2ccc(F)cc2)n1 | -12.5
10 | Cn1cc(Cl)c(CN2CCn3nc(C(=O)Nc4ccccc4)cc3C2)n1 | 32.8
11 | CCOCCC(=O)N1CCc2cccc(S(=O)(=O)N3CCOCC3)c2C1 | -9.19
12 | COCc1cc(CN(C)C(=O)c2c[nH]nc2-c2cccc(F)c2)n[nH]1 | 19.4
13 | C[C@@H]1CN(S(=O)(=O)N2CCCC2)C[C@@]1(O)C1CC1 | -4.68
14 | Cc1cc(C(=O)N2C[C@@H]3[C@@H](CN(C)CCCn4cccn4)[C@@H]3C2)c(C)o1 | -0.851
15 | c1ccc(C(CC2CN(Cc3c[nH]cn3)CCO2)c2ccccc2)cc1 (centres undefined) | -5.4
16 | Cn1ncc2c(NCCCOc3cccnc3)nc(C3CCCC3)nc21 | 16.2
17 | CC[C@H]1CN(C(=O)CCn2c(C)cccc2=O)CC[C@@]1(C)O | -4.82
18 | CCc1nnsc1C(=O)N1CCCC(COc2ccc(F)cc2)C1 (centres undefined) | -4.43
19 | CCNC(=O)[C@@H]1CCCN1C(=O)c1cccc(CCC(C)(C)O)c1 | -7.73
20 | COCCN(Cc1cnn(C)c1)CC1CCN(C(C)C)CC1 | -1.39

Row | SMILES | cytotoxicity at 70.5 h [%]
21 | CN(CCc1ccccn1)[C@@H]1CCN(c2cc(C(N)=O)ccn2)C[C@H]1O | -3.34
22 | COc1ccc(-n2ncc(C(C)NC3CCOCC3)c2C)cc1 (centres undefined) | -1.36
23 | Cc1nc(NCCC23CCCN2CCC3)cc(C2CCNCC2)n1 | -7.1
24 | CCn1nc(C)c(CCNC(=O)c2coc(CN3CCOCC3)c2)c1C | 0.862
25 | OC(CNc1ncnc2c1CCNCC2)C(F)(F)F (centres undefined) | -4.22
26 | Cc1ccccc1N1CCCN(C(=O)c2cn(C)c3ccccc23)CC1 | -8.98
27 | CCc1cc(NCCCOC2CCCC2)ncn1 | -10.7
28 | COc1cc2c(cc1CN1CCCCC1CN1CCOCC1)CCC2 (centres undefined) | 1.06
29 | COCCN(C)CC(=O)N1CCCC2(CCC(=O)N(CC3CC3)C2)C1 (centres undefined) | -27.5
30 | Cc1nccn1CCCC(=O)N1CCN(c2cccnc2)CC1 | 4.06
31 | NC(=O)CCn1cc(CNCCCc2ccccc2O)c2ccccc21 | 8.33
32 | CCc1c(C)nn(C)c1NC(=O)N1CCCOC(Cn2cccn2)C1 (centres undefined) | -4.64
33 | CC(C)Cc1nc(CCn2ccc(=O)[nH]c2=O)n(-c2ccccn2)n1 | 11.3
34 | Cn1nccc1CCNC(=O)[C@H]1CNC[C@H](C(=O)N2CCCC2)C1 | 0.341
35 | Cc1ncc(CC(=O)N2CCC(N3C[C@@H](C)O[C@@H](C)C3)CC2)c(=O)[nH]1 | 9.33
36 | O=C(NC1CC1)c1cn(C2CCN(c3cc(C4CC4)ncn3)CC2)nn1 | 30
37 | COCc1noc(Cn2ccc3ncccc3c2=O)n1 | -7.25
38 | COc1ccc2cc(C3CN(C(=O)N(C)C)CCO3)ccc2c1 (centres undefined) | 26.1
39 | Cc1cc(-n2cccn2)ccc1CN1C[C@@H](CN(C)C)[C@@H](CO)C1 | -8.41
